One molecule from US11207360B2, “Composition for the treatment of dysbiosis of the intestinal microbiota” (NUTRAVIS S.R.L., priority 2017, dated 2021) can be followed below.

Holding throughout (assay type): cell-based
What all share (settings): liposomes containing 1 mg beta-carotene, 24 hours at 37° C.

The test system of assay [1] is Bacillus coagulans. Put plainly: Abscisic acid (ABA) production by Bacillus coagulans culture incubated with carotenoid liposomes, ABA ELISA. The procedure:
Lyophilized probiotics were grown separately in LB medium in shake-flasks equipped with vented cap at 37° C. for 24 hours. After growth, each probiotic suspension was diluted with LB medium to reach approximately 0.1 O.D. at 600 nm. 3.5 ml of each diluted suspension was added with 500 μl of: i) empty liposomes, […] iii) liposomes containing 0.1 mg xanthophyll, iv) both liposomes containing carotene and xanthophyll, and incubated with shaking at 350 rpm at 37° C. for 24 hours. At the end of the incubation, each probiotic suspension was pelleted by centrifugation at 3000×g for 10 minutes. Supernatant was recovered, added with 4 vol of methanol and stored at −20° C. for 24 hours. Pellet was washed once with saline buffer, centrifuged at 3000×g for 10 minutes, resuspended in 2 ml of methanol, sonicated in ice and stored at −20° C. for 24 hours. 4 mg of carotene and 0.4 mg of xanthophyll were dissolved each in 200 μl of chloroform by vortexing. For each liposome preparation 200 mg of lecithin were dissolved in 500 μl of chloroform. Both carotene and xanthophyll chloroform solutions were added, separately, to the chloroform lecithin solution, vortexed, and completely dried with N2 to create a thin layer on the inner wall of a glass Corex. […] Quantification of abscisic acid (ABA) was performed on both pellets and supernatants obtained as described above (see Bacterial cell culture). […]

Assay [2] deals with Bacillus coagulans, Lactobacillus Plantarum. The assay can be described thus: Abscisic acid production by culture of Bacillus coagulans and Lactobacillus Plantarum incubated with liposomes, ABA ELISA. The procedure: (§1) Lyophilized probiotics were grown separately in LB medium in shake-flasks equipped with vented cap at 37° C. for 24 hours. After growth, each probiotic suspension was diluted with LB medium to reach approximately 0.1 O.D. at 600 nm. 3.5 ml of each diluted suspension was added with 500 μl of:
(§2) ii) liposomes containing 1 mg carotene,
(§3) iii) liposomes containing 0.1 mg xanthophyll,
(§4) iv) both liposomes containing carotene and xanthophyll, and
(§5) incubated with shaking at 350 rpm at 37° C. for 24 hours.
(§6) At the end of the incubation, each probiotic suspension was pelleted by centrifugation at 3000×g for 10 minutes. Supernatant was recovered, added with 4 vol of methanol and stored at −20° C. for 24 hours. Pellet was washed once with saline buffer, centrifuged at 3000×g for 10 minutes, resuspended in 2 ml of methanol, sonicated in ice and stored at −20° C. for 24 hours.
(§7) 4 mg of carotene and 0.4 mg of xanthophyll were dissolved each in 200 μl of chloroform by vortexing. For each liposome preparation 200 mg of lecithin were dissolved in 500 μl of chloroform. Both carotene and xanthophyll chloroform solutions were added, separately, to the chloroform lecithin solution, vortexed, and completely dried with N2 to create a thin layer on the inner wall of a glass Corex. […]
(§8) Quantification of abscisic acid (ABA) was performed on both pellets and supernatants obtained as described above (see Bacterial cell culture). […]

The test system of assay [3] is Lactobacillus Rhamnosus. The assay can be described thus: Abscisic acid production by Lactobacillus Rhamnosus culture incubated with liposomes, ABA ELISA. The procedure:
as §1, §2, §3, §4, §5, §6, §7, §8

With `CC1=C(/C=C/C(C)=C/C=C/C(C)=C/C=C/C=C(C)/C=C/C=C(C)/C=C/C2=C(C)CCCC2(C)C)C(C)(C)CCC1` [beta-carotene], the “production of abscisic acid, times higher than culture with empty liposomes (FIG. 2)” value in assay [1] was “about 5 times”. Further, in assay [1] (p=0.0093), the “production of abscisic acid, times higher than culture with empty liposomes (FIG. 1A)” value is reported as “about 6.6 times”. The “production of abscisic acid, times higher than culture with empty liposomes (FIG. 1B)” value in assay [2] is reported as “about 7.5 times”. Besides, the “production of abscisic acid, times higher than culture with empty liposomes (FIG. 1C)” value in assay [3] is “about 20 times”.
